The conditions of series [1]: ADA: data of Schwarzenbach et al. (1955); cited from earlier work.
For series [2] the following is noted: ADA: data of Schwarzenbach et al. (1955); cited from earlier work. The source holds these as a separate data set.
The conditions of series [3]: cited from earlier work; for αpKa /° C.: change of pKa per ° C.
For series [4] the following is noted: ADA: data of Schwarzenbach et al. (1955); cited from earlier work. The source holds these as a separate data set.
For series [5] the following is noted: cited from earlier work.
For series [6] the following is noted: ADA: data of Schwarzenbach et al. (1955); cited from earlier work. This is another data set of the same source.
For a further series, the system named is cancer tumors. The series is described as follows: Macrophage infiltration of tumors. Type of series: in vivo, dogs. Particulars: dogs. From the text:
(§1) The amphoteric zwitterion compounds may be employed as active ingredients with other active ingredients, as well as other components and carriers typically used in pharmaceutical compositions; such as, but not limited to: buffers, stabilizers, dyes, antioxidants, dispersing agents, fillers, surfactants, silicones, bulking agents, pigments, salts, human or animal (natural or synthetic) cells and cellular components, antibiotics, drugs, vitamins, amino acids, proteins, serum and various other compounds and combinations thereof in varying amounts.

In series [7] the test system is giant platelets and histiocytes. Description: Giant platelets and histiocytes on peripheral smear. Particulars: blood / peripheral smear. It counts as in vivo, animals.
Source text: as §1

[8] abbreviates: as the hydrochloride (footnote b).

Read-outs that look alike come from different tables or passages of the source. Where a SMILES comes first, the peptide text is derived from it.

What is called pKa is the pH at which an ionisable group is half protonated.

Take `O=C(O)CN(CCO)CCO` [Bicine]: the “Metal-Buffer Binding Constants Log KM, Mg^2+” value in series [1] is on record as 1.5. In addition, in series [2], the “Metal-Buffer Binding Constants Log KM, Ca^2+” value was 2.8. In series [3], the “αpKa /° C.” value is given as -0.018.

For `O=C(O)CNC(CO)(CO)CO` [Tricine], the “Metal-Buffer Binding Constants Log KM, Mg^2+” value in series [1] is 1.2. For the same compound, the “Metal-Buffer Binding Constants Log KM, Ca^2+” value in series [2] is recorded as 2.4. For the same compound, the “Metal-Buffer Binding Constants Log KM, Cu^2+” value in series [4] is listed as 7.3. Moreover, the “Saturated Solution at 0°” value in series [5] is reported as 0.8 M.

For `NC(=O)CNCCS(=O)(=O)O` [ACES], the “Metal-Buffer Binding Constants Log KM, Mn^2+” value in series [6] is recorded as “Negl”. Also, the “Metal-Buffer Binding Constants Log KM, Cu^2+” value in series [4] was 4.6. Also, in series [3], the “pKa at 20°” value is 6.9 and the “αpKa /° C.” value is given as -0.020. In addition, the “Saturated Solution at 0°” value in series [5] is given as 0.22 M.

On to `NCC(N)=O` [Glycinamide], for which, in series [3], the “pKa at 20°” value is on record as 8.2 and the “αpKa /° C.” value was -0.029. The “Saturated Solution at 0°” value in series [5] (setting [8]) was 4.6 M.

Turning to `O=S(=O)(O)CCN1CCN(CCS(=O)(=O)O)CC1` [PIPES], the “macrophage infiltration of cancer tumors” value in the series on cancer tumors is “macrophage infiltration of cancer tumors in dogs”. Further, the “giant platelets and histiocytes” value in series [7] was “production of giant platelets and histiocytes”. In addition, the “Metal-Buffer Binding Constants Log KM, Mg^2+” value in series [1] was “Negl”. The “Metal-Buffer Binding Constants Log KM, Ca^2+” value in series [2] is given as “Negl”. In addition, in series [6], the “Metal-Buffer Binding Constants Log KM, Mn^2+” value is on record as “Negl”. For the same compound, in series [4], the “Metal-Buffer Binding Constants Log KM, Cu^2+” value is given as “Negl”.

For `O=S(=O)(O)CCN1CCOCC1` [MES], the “Metal-Buffer Binding Constants Log KM, Cu^2+” value in series [4] is recorded as “Negl”.

Regarding `O=S(=O)(O)CCNC(CO)(CO)CO` [TES], in series [1], the “Metal-Buffer Binding Constants Log KM, Mg^2+” value was “Negl”. Also, the “Metal-Buffer Binding Constants Log KM, Ca^2+” value in series [2] was “Negl”. The “Metal-Buffer Binding Constants Log KM, Mn^2+” value in series [6] was “Negl”. Moreover, the “Metal-Buffer Binding Constants Log KM, Cu^2+” value in series [4] is 3.2. Besides, in series [3], the “pKa at 20°” value was 7.5. Moreover, in series [5], the “Saturated Solution at 0°” value is given as 2.6 M.

As for `NC(=O)CNCC(=O)O` [Acetamidoglycine, Acetamido-glycine], the “pKa at 20°” value in series [3] is about 7.7.

Regarding `NC(CO)(CO)CO` [Tris], in series [1], the “Metal-Buffer Binding Constants Log KM, Mg^2+” value was “Negl”. The “Metal-Buffer Binding Constants Log KM, Ca^2+” value in series [2] is on record as “Negl”. The “Metal-Buffer Binding Constants Log KM, Mn^2+” value in series [6] is recorded as “Negl”. Besides, in series [5], the “Saturated Solution at 0°” value is reported as 2.4 M.

With `C[N+](C)(C)CCN` [Cholamine chloride], the “Metal-Buffer Binding Constants Log KM, Mg^2+” value in series [1] was “Negl”. Further, the “Metal-Buffer Binding Constants Log KM, Ca^2+” value in series [2] is “Negl”. The “Metal-Buffer Binding Constants Log KM, Mn^2+” value in series [6] is recorded as “Negl”. In series [4], the “Metal-Buffer Binding Constants Log KM, Cu^2+” value is “Negl”. In series [3], the “pKa at 20°” value is listed as 7.1 and the “αpKa /° C.” value is on record as -0.027. Also, in series [5] (setting [8]), the “Saturated Solution at 0°” value is on record as 4.2 M.

`NC(=O)CN(CC(=O)O)CC(=O)O` [ADA]: the “Metal-Buffer Binding Constants Log KM, Mg^2+” value in series [1] is on record as 2.5. In addition, the “Metal-Buffer Binding Constants Log KM, Ca^2+” value in series [2] was 4.0. Also, in series [6], the “Metal-Buffer Binding Constants Log KM, Mn^2+” value is 4.9. Further, the “Metal-Buffer Binding Constants Log KM, Cu^2+” value in series [4] is 9.7. Moreover, the “pKa at 20°” value in series [3] is listed as 6.6.

Consider `NCC(=O)NCC(=O)O` [Glycylglycine] (H-Gly-Gly-OH), for which the “Metal-Buffer Binding Constants Log KM, Mn^2+” value in series [6] was 1.7. The “Metal-Buffer Binding Constants Log KM, Cu^2+” value in series [4] is listed as 5.8. Moreover, the “pKa at 20°” value in series [3] is recorded as 8.4.

As for `O=S(=O)(O)CCN(CCO)CCO` [BES], the “Metal-Buffer Binding Constants Log KM, Mg^2+” value in series [1] is recorded as “Negl”. In addition, the “Metal-Buffer Binding Constants Log KM, Ca^2+” value in series [2] was “Negl”. In addition, in series [6], the “Metal-Buffer Binding Constants Log KM, Mn^2+” value is “Negl”. In addition, in series [4], the “Metal-Buffer Binding Constants Log KM, Cu^2+” value is listed as 3.5. Further, the “pKa at 20°” value in series [3] is listed as 7.15.

(Values after patent US6071919A, “Zwitterionic compositions and methods as biological response modifiers” (priority 1998, dated 2000).)
